What was measured:
[1] = target: T1, wt human TYK2, catalytic site (Homo sapiens, UniProt P29597); assay: HTRF KinEASE assay, TYK2; assay type: biochemical; conditions: 1 μM ATP; read-out: IC50, Activity Toward TYK2
T1 construct: wt human TYK2, catalytic site; purchased SignalChem
T1 sequence (P29597 897-1176 limits assumed): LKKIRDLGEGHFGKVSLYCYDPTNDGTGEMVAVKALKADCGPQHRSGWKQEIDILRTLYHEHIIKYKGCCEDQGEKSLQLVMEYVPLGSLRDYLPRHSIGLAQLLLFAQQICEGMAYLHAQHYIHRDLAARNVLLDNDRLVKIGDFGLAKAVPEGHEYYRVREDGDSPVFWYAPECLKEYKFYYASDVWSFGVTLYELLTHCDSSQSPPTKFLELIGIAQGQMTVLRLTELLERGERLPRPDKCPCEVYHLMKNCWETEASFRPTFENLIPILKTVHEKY
Experimental: (§1) Basic protocol for HTRF KinEASE assay (Cisbio/FRA) inhibitor studies involved two steps: • Enzymatic step: Addition of 4 μL of test compound in corresponding DMSO dilutions, 4 μL of kinase/substrate mixture, 2 μL of ATP into 384 well small volume plates. Incubation for at least 30 minutes at room temperature. • Detection step: Addition of 5 μL antibody and 5 μL streptavidin-XL665, read plate after 60 minutes. Data analysis of emission ratios according KinEASE assay protocol.
(§2) Kinase and assay components were adjusted to final concentrations according to kit protocol. For TYK2: 2 nM wt human TYK2, catalytic site (SignalChem/CAN), 1 μM HTRF KinEASE-TK Substrate-biotin, 1 μM ATP in 1× Kinase Buffer. For JAK1: 4 nM wt human JAK1, catalytic site (ThermoFisher/USA), 1 μM HTRF KinEASE-TK Substrate-biotin, 2.5 μM ATP in 1× Kinase Buffer. For JAK2: 1 nM wt human JAK2, catalytic site (SignalChem/CAN), 1 μM HTRF KinEASE-TK Substrate-biotin, 100 μM ATP in 1× Kinase Buffer.
as §2

[2] = target: T2, wt human JAK1, catalytic site (Homo sapiens, UniProt P23458); assay: HTRF KinEASE assay, JAK1; assay type: biochemical; conditions: 2.5 μM ATP; read-out: IC50, Activity Toward JAK1
T2 construct: wt human JAK1, catalytic site; purchased ThermoFisher
T2 sequence (P23458 875-1153 limits assumed): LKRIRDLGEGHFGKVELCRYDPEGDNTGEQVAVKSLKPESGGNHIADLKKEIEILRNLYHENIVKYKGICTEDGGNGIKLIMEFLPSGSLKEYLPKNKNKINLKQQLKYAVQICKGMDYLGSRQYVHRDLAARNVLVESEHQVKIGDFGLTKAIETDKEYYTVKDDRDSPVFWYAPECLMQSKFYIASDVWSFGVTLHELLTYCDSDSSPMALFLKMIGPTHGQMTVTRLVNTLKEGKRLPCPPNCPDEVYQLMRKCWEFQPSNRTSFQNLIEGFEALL
Experimental: as §1
as §2, with “For JAK1: 4 nM wt human JAK1, catalytic site (ThermoFisher/USA), 1 μM HTRF KinEASE-TK Substrate-biotin, 2.5 μM ATP in 1× Kinase Buffer.” left out
as §2, with “For JAK1: 4 nM wt human JAK1, catalytic site (ThermoFisher/USA), 1 μM HTRF KinEASE-TK Substrate-biotin, 2.5 μM ATP in 1× Kinase Buffer.” left out

Cn1c(-c2ccc(Nc3cn(-c4c(Cl)cccc4Cl)nc3C(N)=O)cc2)nnc1C(F)(F)F [compound 242, 1-(2,6-dichlorophenyl)-4-((4-(4-methyl-5-(trifluoromethyl)-4H-1,2,4-triazol-3-yl)phenyl)amino)-1H-pyrazole-3-carboxamide]
IC50 [1]: 10 to 100 nM | IC50 [2]: 10 to 100 nM

Cc1ncnn1-c1ccc(Nc2cn(-c3c(Cl)cccc3Cl)nc2C(N)=O)nc1 [compound 430, 1-(2,6-dichlorophenyl)-4-((5-(5-methyl-1H-1,2,4-triazol-1-yl)pyridin-2-yl)amino)-1H-pyrazole-3-carboxamide]
IC50 [1]: 100 to 1000 nM | IC50 [2]: 100 to 1000 nM

Cn1nc(C(F)(F)F)nc1-c1ccc(Nc2cn(-c3c(Cl)cccc3Cl)nc2C(N)=O)cc1 [compound 215, 1-(2,6-dichlorophenyl)-4-((4-(1-methyl-3-(trifluoromethyl)-1H-1,2,4-triazol-5-yl)phenyl)amino)-1H-pyrazole-3-carboxamide]
IC50 [1]: < 10 nM | IC50 [2]: 10 to 100 nM

Cc1cnn(-c2ccc(Nc3cn(-c4c(Cl)cccc4Cl)nc3C(N)=O)cc2)c1C [compound 218, 1-(2,6-dichlorophenyl)-4-((4-(4,5-dimethyl-1H-pyrazol-1-yl)phenyl)amino)-1H-pyrazole-3-carboxamide]
IC50 [1]: 100 to 1000 nM | IC50 [2]: 100 to 1000 nM

NC(=O)c1nn(-c2c(Cl)cccc2Cl)cc1Nc1cnn(CC(=O)N2CCS(=O)(=O)CC2)c1 [compound 469, 1-(2,6-dichlorophenyl)-4-((1-(2-(1,1-dioxidothiomorpholino)-2-oxoethyl)-1H-pyrazol-4-yl)amino)-1H-pyrazole-3-carboxamide]
IC50 [1]: 10 to 100 nM | IC50 [2]: 10 to 100 nM

NC(=O)c1nn(-c2c(Cl)cccc2Cl)cc1Nc1ccc(C(=O)N2CC(O)C2)cn1 [compound 439, 1-(2,6-dichlorophenyl)-4-((5-(3-hydroxyazetidine-1-carbonyl)pyridin-2-yl)amino)-1H-pyrazole-3-carboxamide]
IC50 [1]: 100 to 1000 nM | IC50 [2]: 10 to 100 nM

NC(=O)c1nn(-c2c(Cl)cccc2Cl)nc1Nc1cnn(CC(=O)N2CCOCC2)c1 [compound 168, 2-(2,6-dichlorophenyl)-5-((1-(2-morpholino-2-oxoethyl)-1H-pyrazol-4-yl)amino)-2H-1,2,3-triazole-4-carboxamide]
IC50 [1]: 10 to 100 nM | IC50 [2]: 10 to 100 nM

Cn1ncc(Nc2cn(-c3c(Cl)cccc3Cl)nc2C(N)=O)n1 [compound 379, 1-(2,6-dichlorophenyl)-4-((2-methyl-2H-1,2,3-triazol-4-yl)amino)-1H-pyrazole-3-carboxamide]
IC50 [1]: 100 to 1000 nM | IC50 [2]: 100 to 1000 nM

NC(=O)c1nn(-c2c(Cl)cccc2Cl)nc1Nc1ccc(C(=O)N2CCOCC2)cn1 [compound 140, 2-(2,6-dichlorophenyl)-5-((5-(morpholine-4-carbonyl)pyridin-2-yl)amino)-2H-1,2,3-triazole-4-carboxamide]
IC50 [1]: 10 to 100 nM | IC50 [2]: 100 to 1000 nM

NC(=O)c1nn(-c2c(Cl)cccc2Cl)cc1Nc1ccc(-c2nnc3cncc(Cl)n23)nc1 [compound 447, 4-((6-(5-chloro-[1,2,4]triazolo[4,3-a]pyrazin-3-yl)pyridin-3-yl)amino)-1-(2,6-dichlorophenyl)-1H-pyrazole-3-carboxamide]
IC50 [1]: 10 to 100 nM | IC50 [2]: 10 to 100 nM

NC(=O)c1nn(-c2c(Cl)cccc2Cl)cc1Nc1ccc(C(=O)N2CCN(CC(F)(F)F)CC2)cc1 [compound 93, 1-(2,6-dichlorophenyl)-4-((4-(4-(2,2,2-trifluoroethyl)piperazine-1-carbonyl)phenyl)amino)-1H-pyrazole-3-carboxamide]
IC50 [1]: 10 to 100 nM | IC50 [2]: 100 to 1000 nM

NC(=O)c1nn(-c2c(F)cccc2Cl)cc1Nc1ccc(-n2cc3c(n2)CCOC3)cc1 [compound 209, 1-(2-chloro-6-fluorophenyl)-4-((4-(6,7-dihydropyrano[4,3-c]pyrazol-2(4H)-yl)phenyl)amino)-1H-pyrazole-3-carboxamide]
IC50 [1]: 10 to 100 nM | IC50 [2]: 100 to 1000 nM

NC(=O)c1nn(-c2c(Cl)cccc2Cl)cc1Nc1ccc(-c2ccnnc2)nc1 [compound 352, 1-(2,6-dichlorophenyl)-4-((6-(pyridazin-4-yl)pyridin-3-yl)amino)-1H-pyrazole-3-carboxamide]
IC50 [1]: 100 to 1000 nM | IC50 [2]: 100 to 1000 nM

CN(C)[C@H]1CCN(C(=O)c2ccc(Nc3cn(-c4c(Cl)cccc4Cl)nc3C(N)=O)cn2)C1 [compound 354, (S)-1-(2,6-dichlorophenyl)-4-((6-(3-(dimethylamino)pyrrolidine-1-carbonyl)pyridin-3-yl)amino)-1H-pyrazole-3-carboxamide]
IC50 [1]: 10 to 100 nM | IC50 [2]: 100 to 1000 nM

NC(=O)c1nn(-c2c(Cl)cccc2Cl)cc1Nc1ccc(-c2nnc3cccc(C(F)(F)F)n23)nc1 [compound 471, 1-(2,6-dichlorophenyl)-4-((6-(5-(trifluoromethyl)-[1,2,4]triazolo[4,3-a]pyridin-3-yl)pyridin-3-yl)amino)-1H-pyrazole-3-carboxamide]
IC50 [1]: 100 to 1000 nM | IC50 [2]: 100 to 1000 nM

CCc1ccn(-c2ccc(Nc3cn(-c4c(Cl)cccc4Cl)nc3C(N)=O)cc2)n1 [compound 240, 1-(2,6-dichlorophenyl)-4-((4-(3-ethyl-1H-pyrazol-1-yl)phenyl)amino)-1H-pyrazole-3-carboxamide]
IC50 [1]: 100 to 1000 nM | IC50 [2]: 100 to 1000 nM

CC(C)(C)NC(=O)c1ccc(Nc2cn(-c3c(F)cccc3Cl)nc2C(N)=O)cc1F [compound 29]
IC50 [1]: 10 to 100 nM | IC50 [2]: 100 to 1000 nM

NC(=O)c1nn(-c2c(Cl)cccc2Cl)cc1Nc1ccc(-c2nnc3n2CCCC3)cc1 [compound 55, 1-(2,6-dichlorophenyl)-4-((4-(5,6,7,8-tetrahydro-[1,2,4]triazolo[4,3-a]pyridin-3-yl)phenyl)amino)-1H-pyrazole-3-carboxamide]
IC50 [1]: 10 to 100 nM | IC50 [2]: 100 to 1000 nM

NC(=O)c1nn(-c2c(Cl)cc(F)cc2Cl)cc1Nc1ccc(C(=O)N2CCOCC2)cc1 [compound 412, 1-(2,6-dichloro-4-fluorophenyl)-4-((4-(morpholine-4-carbonyl)phenyl)amino)-1H-pyrazole-3-carboxamide]
IC50 [1]: 10 to 100 nM | IC50 [2]: 10 to 100 nM

Cc1cnnc(-c2ccc(Nc3cn(-c4c(Cl)cccc4Cl)nc3C(N)=O)cc2)c1C [compound 213, 1-(2,6-dichlorophenyl)-4-((4-(4,5-dimethylpyridazin-3-yl)phenyl)amino)-1H-pyrazole-3-carboxamide]
IC50 [1]: 10 to 100 nM | IC50 [2]: 100 to 1000 nM

CC(C)(C)OC(=O)N[C@@H]1CCN(C(=O)c2ccc(Nc3cn(-c4c(Cl)cccc4Cl)nc3C(N)=O)cc2)C1 [compound 324, (R)-tert-butyl_(1-(4-((3-carbamoyl-1-(2,6-dichlorophenyl)-1H-pyrazol-4-yl)amino)benzoyl)pyrrolidin-3-yl)carbamate]
IC50 [1]: 100 to 1000 nM | IC50 [2]: 100 to 1000 nM

NC(=O)c1nn(-c2c(Cl)cccc2Cl)cc1Nc1ccc(C(=O)N2CC[C@@H](F)C2)cn1 [compound 443, (R)-1-(2,6-dichlorophenyl)-4-((5-(3-fluoropyrrolidine-1-carbonyl)pyridin-2-yl)amino)-1H-pyrazole-3-carboxamide]
IC50 [1]: 10 to 100 nM | IC50 [2]: 10 to 100 nM

CS(=O)(=O)Nc1ccc(Nc2cn(-c3c(Cl)cccc3Cl)nc2C(N)=O)cc1 [compound 271, 1-(2,6-dichlorophenyl)-4-((4-(methylsulfonamido)phenyl)amino)-1H-pyrazole-3-carboxamide]
IC50 [1]: 10 to 100 nM | IC50 [2]: 10 to 100 nM

Cc1cnncc1-c1ccc(Nc2cn(-c3c(Cl)cccc3Cl)nc2C(N)=O)cn1 [compound 350, 1-(2,6-dichlorophenyl)-4-((6-(5-methylpyridazin-4-yl)pyridin-3-yl)amino)-1H-pyrazole-3-carboxamide]
IC50 [1]: 100 to 1000 nM | IC50 [2]: 100 to 1000 nM

NC(=O)c1nn(-c2c(Cl)cccc2Cl)nc1Nc1ccc(C(=O)NCCF)cc1 [compound 128, 2-(2,6-dichlorophenyl)-5-((4-((2-fluoroethyl)carbamoyl)phenyl)amino)-2H-1,2,3-triazole-4-carboxamide]
IC50 [1]: < 10 nM | IC50 [2]: < 10 nM

NC(=O)c1nn(-c2c(Cl)cccc2Cl)cc1Nc1ccc(C(=O)N2CC(F)C2)cn1 [compound 449, 1-(2,6-dichlorophenyl)-4-((5-(3-fluoroazetidine-1-carbonyl)pyridin-2-yl)amino)-1H-pyrazole-3-carboxamide]
IC50 [1]: 100 to 1000 nM | IC50 [2]: 100 to 1000 nM

Cc1cccc2ncc(-c3ccc(Nc4cn(-c5c(Cl)cccc5Cl)nc4C(N)=O)cn3)n12 [compound 473, 1-(2,6-dichlorophenyl)-4-((6-(5-methylimidazo[1,2-a]pyridin-3-yl)pyridin-3-yl)amino)-1H-pyrazole-3-carboxamide]
IC50 [1]: 10 to 100 nM | IC50 [2]: 10 to 100 nM

From US20230373985A1 (Origenis Gmbh, priority 2020, published 2023)
